Reference: ChEMBL document CHEMBL4229365, “Synthesis of novel ring-contracted artemisinin dimers with potent anticancer activities” (Eur J Med Chem, 2018)

What was measured:
L02 = assay: Antiproliferative activity against human L02 cells after 72 hrs by CCK-8 assay; assay type: cell-based; conditions: L02, 72 h
A-375 = assay: Antiproliferative activity against human A375 cells after 72 hrs by CCK-8 assay; assay type: functional, cell-based; conditions: A-375, 72 h
PC-12 = assay: Antiproliferative activity against rat PC12 cells after 72 hrs by CCK-8 assay; assay type: functional, cell-based; conditions: PC-12, 72 h
SH-SY5Y = assay: Antiproliferative activity against human SH-SY5Y cells after 72 hrs by CCK-8 assay; assay type: functional, cell-based
A549 = assay: Antiproliferative activity against human A549 cells after 72 hrs by CCK-8 assay; assay type: functional, cell-based; conditions: A549, 72 h
HCT-116 = assay: Antiproliferative activity against human HCT116 cells after 72 hrs by CCK-8 assay; assay type: functional, cell-based; conditions: HCT-116, 72 h

Q: Which IC50 (L02) does the source give for `C[C@@H]1CC[C@@H]2[C@]34OO[C@](C)(CC[C@@H]13)O[C@H]4O[C@]2(C)C(=O)O` here?
A: > 50 µM

Q: And the IC50 (A-375)?
A: > 50 µM

Q: What about the IC50 (PC-12) of the same compound?
A: 37.3 µM

Q: And the IC50 (SH-SY5Y)?
A: > 50 µM

Q: What about the IC50 (A549) of the same compound?
A: > 50 µM

Q: What about the IC50 (HCT-116) of the same compound?
A: > 50 µM

Q: For `C[C@@H]1CC[C@@H]2[C@]34OO[C@](C)(CC[C@@H]13)O[C@H]4O[C@]2(C)C(=O)OCCCCCCCCCCCCOC(=O)[C@@]1(C)O[C@@H]2O[C@@]3(C)CC[C@H]4[C@H](C)CC[C@@H]1[C@@]24OO3`, which IC50 (A-375) is on record?
A: > 50 µM

Q: What about the IC50 (PC-12) of the same compound?
A: > 50 µM

Q: What about the IC50 (SH-SY5Y) of the same compound?
A: > 50 µM

Q: And the IC50 (A549)?
A: > 50 µM

Q: What about the IC50 (HCT-116) of the same compound?
A: > 50 µM

Q: What does the source list for `C[C@@H]1CC[C@@H]2[C@]34OO[C@](C)(CC[C@@H]13)O[C@H]4O[C@]2(C)C(=O)OCCCCCCCOC(=O)[C@@]1(C)O[C@@H]2O[C@@]3(C)CC[C@H]4[C@H](C)CC[C@@H]1[C@@]24OO3`?
A: IC50 (L02): 16.6 µM; IC50 (A-375): 7.86 µM; IC50 (PC-12): 8.17 µM; IC50 (SH-SY5Y): 7.29 µM; IC50 (A549): 7.71 µM; IC50 (HCT-116): 11.6 µM

Q: What does the source list for `C[C@@H]1CC[C@@H]2[C@]34OO[C@](C)(CC[C@@H]13)O[C@H]4O[C@]2(C)C(=O)NCCCCNC(=O)[C@@]1(C)O[C@@H]2O[C@@]3(C)CC[C@H]4[C@H](C)CC[C@@H]1[C@@]24OO3`?
A: IC50 (A-375): > 50 µM; IC50 (PC-12): 25.4 µM; IC50 (SH-SY5Y): > 50 µM; IC50 (A549): > 50 µM; IC50 (HCT-116): > 50 µM

Q: `C[C@@H]1CC[C@@H]2[C@]34OO[C@](C)(CC[C@@H]13)O[C@H]4O[C@]2(C)/C=C\COP(=O)(OC/C=C/[C@@]1(C)O[C@@H]2O[C@@]3(C)CC[C@H]4[C@H](C)CC[C@@H]1[C@@]24OO3)Oc1ccccc1` was tested. Which IC50 (L02) did it give?
A: 31.6 µM

Q: And the IC50 (A-375)?
A: 8.14 µM

Q: What about the IC50 (PC-12) of the same compound?
A: 7.22 µM

Q: What about the IC50 (SH-SY5Y) of the same compound?
A: 5.79 µM

Q: And the IC50 (A549)?
A: 10.7 µM

Q: What about the IC50 (HCT-116) of the same compound?
A: 9.1 µM

Q: `C[C@@H]1CC[C@@H]2[C@]34OO[C@](C)(CC[C@@H]13)O[C@H]4O[C@]2(C)C(=O)Nc1ccc(NC(=O)[C@@]2(C)O[C@@H]3O[C@@]4(C)CC[C@H]5[C@H](C)CC[C@@H]2[C@@]35OO4)cc1` was tested. Which IC50 (A-375) did it give?
A: > 50 µM

Q: And the IC50 (PC-12)?
A: > 50 µM

Q: What about the IC50 (SH-SY5Y) of the same compound?
A: > 50 µM

Q: And the IC50 (A549)?
A: > 50 µM

Q: And the IC50 (HCT-116)?
A: > 50 µM

Q: What does the source list for `C[C@@H]1CC[C@@H]2[C@]34OO[C@](C)(CC[C@@H]13)O[C@H]4O[C@]2(C)C(=O)OCc1ccccc1COC(=O)[C@@]1(C)O[C@@H]2O[C@@]3(C)CC[C@H]4[C@H](C)CC[C@@H]1[C@@]24OO3`?
A: IC50 (L02): 5 µM; IC50 (A-375): > 50 µM; IC50 (PC-12): 8.73 µM; IC50 (SH-SY5Y): 47.5 µM; IC50 (A549): 21.7 µM; IC50 (HCT-116): 15.1 µM

Q: How did the IC50 (A-375) turn out when `C[C@@H]1CC[C@@H]2[C@]34OO[C@](C)(CC[C@@H]13)O[C@H]4O[C@]2(C)C(=O)OCCOC(=O)[C@@]1(C)O[C@@H]2O[C@@]3(C)CC[C@H]4[C@H](C)CC[C@@H]1[C@@]24OO3` was run?
A: > 50 µM

Q: And the IC50 (PC-12)?
A: > 50 µM

Q: And the IC50 (SH-SY5Y)?
A: > 50 µM

Q: And the IC50 (A549)?
A: > 50 µM

Q: And the IC50 (HCT-116)?
A: > 50 µM

Q: Which results are given for `C[C@H]1[C@@H](O)O[C@@H]2O[C@@]3(C)CC[C@H]4[C@H](C)CC[C@@H]1[C@@]24OO3` [ARTENIMOL]?
A: IC50 (L02): > 50 µM; IC50 (A-375): > 50 µM; IC50 (PC-12): > 50 µM; IC50 (SH-SY5Y): > 50 µM; IC50 (A549): 29.9 µM; IC50 (HCT-116): 32.8 µM

Q: With `C[C@@H]1CC[C@@H]2[C@]34OO[C@](C)(CC[C@@H]13)O[C@H]4O[C@]2(C)C(=O)Nc1cccc(NC(=O)[C@@]2(C)O[C@@H]3O[C@@]4(C)CC[C@H]5[C@H](C)CC[C@@H]2[C@@]35OO4)c1` as the compound, how does the IC50 (A-375) read?
A: > 50 µM

Q: And the IC50 (PC-12)?
A: > 50 µM

Q: What about the IC50 (SH-SY5Y) of the same compound?
A: > 50 µM

Q: What about the IC50 (A549) of the same compound?
A: > 50 µM

Q: And the IC50 (HCT-116)?
A: > 50 µM

Q: Which results are given for `CCOP(=O)(OC/C=C\[C@@]1(C)O[C@@H]2O[C@@]3(C)CC[C@H]4[C@H](C)CC[C@@H]1[C@@]24OO3)OC/C=C/[C@@]1(C)O[C@@H]2O[C@@]3(C)CC[C@H]4[C@H](C)CC[C@@H]1[C@@]24OO3`?
A: IC50 (L02): 18.7 µM; IC50 (A-375): 12.4 µM; IC50 (PC-12): 5.26 µM; IC50 (SH-SY5Y): 6.38 µM; IC50 (A549): 11.4 µM; IC50 (HCT-116): 10.7 µM

Q: `C[C@@H]1CC[C@@H]2[C@]34OO[C@](C)(CC[C@@H]13)O[C@H]4O[C@]2(C)CO` was tested. Which IC50 (L02) did it give?
A: > 50 µM

Q: And the IC50 (A-375)?
A: > 50 µM

Q: And the IC50 (PC-12)?
A: > 50 µM

Q: And the IC50 (SH-SY5Y)?
A: > 50 µM

Q: What about the IC50 (A549) of the same compound?
A: > 50 µM

Q: And the IC50 (HCT-116)?
A: > 50 µM

Q: Which results are given for `CCOP(=O)(OC[C@@]1(C)O[C@@H]2O[C@@]3(C)CC[C@H]4[C@H](C)CC[C@@H]1[C@@]24OO3)OC[C@@]1(C)O[C@@H]2O[C@@]3(C)CC[C@H]4[C@H](C)CC[C@@H]1[C@@]24OO3`?
A: IC50 (L02): 33.9 µM; IC50 (A-375): 9.62 µM; IC50 (PC-12): 5.46 µM; IC50 (A549): 15.4 µM; IC50 (HCT-116): 14.8 µM

Q: `C[C@@H]1CC[C@@H]2[C@]34OO[C@](C)(CC[C@@H]13)O[C@H]4O[C@]2(C)C(=O)NCCCCCCNC(=O)[C@@]1(C)O[C@@H]2O[C@@]3(C)CC[C@H]4[C@H](C)CC[C@@H]1[C@@]24OO3` was tested. Which IC50 (A-375) did it give?
A: 35.3 µM

Q: And the IC50 (PC-12)?
A: > 50 µM

Q: And the IC50 (SH-SY5Y)?
A: > 50 µM

Q: What about the IC50 (A549) of the same compound?
A: > 50 µM

Q: What about the IC50 (HCT-116) of the same compound?
A: > 50 µM

Q: Which results are given for `C[C@@H]1CC[C@@H]2[C@]34OO[C@](C)(CC[C@@H]13)O[C@H]4O[C@]2(C)C(=O)NCCCCCCCCNC(=O)[C@@]1(C)O[C@@H]2O[C@@]3(C)CC[C@H]4[C@H](C)CC[C@@H]1[C@@]24OO3`?
A: IC50 (L02): > 50 µM; IC50 (A-375): 19.4 µM; IC50 (PC-12): 11.2 µM; IC50 (SH-SY5Y): > 50 µM; IC50 (A549): 18.9 µM; IC50 (HCT-116): > 50 µM

Q: What does the source list for `C[C@@H]1CC[C@@H]2[C@]34OO[C@](C)(CC[C@@H]13)O[C@H]4O[C@]2(C)C(=O)OCC(C)(C)COC(=O)[C@@]1(C)O[C@@H]2O[C@@]3(C)CC[C@H]4[C@H](C)CC[C@@H]1[C@@]24OO3`?
A: IC50 (A-375): > 50 µM; IC50 (PC-12): > 50 µM; IC50 (SH-SY5Y): > 50 µM; IC50 (A549): > 50 µM; IC50 (HCT-116): > 50 µM

Q: What does the source list for `C[C@@H]1CC[C@@H]2[C@]34OO[C@](C)(CC[C@@H]13)O[C@H]4O[C@]2(C)C(=O)OCCCCCOC(=O)[C@@]1(C)O[C@@H]2O[C@@]3(C)CC[C@H]4[C@H](C)CC[C@@H]1[C@@]24OO3`?
A: IC50 (A-375): > 50 µM; IC50 (PC-12): > 50 µM; IC50 (SH-SY5Y): 9.26 µM; IC50 (A549): 12 µM; IC50 (HCT-116): > 50 µM

Q: `C[C@@H]1CC[C@@H]2[C@]34OO[C@](C)(CC[C@@H]13)O[C@H]4O[C@]2(C)C(=O)OCCCCCCCCOC(=O)[C@@]1(C)O[C@@H]2O[C@@]3(C)CC[C@H]4[C@H](C)CC[C@@H]1[C@@]24OO3` was tested. Which IC50 (L02) did it give?
A: 4.84 µM

Q: And the IC50 (A-375)?
A: 5.73 µM

Q: And the IC50 (PC-12)?
A: 5.67 µM

Q: What about the IC50 (SH-SY5Y) of the same compound?
A: 4.87 µM

Q: What about the IC50 (A549) of the same compound?
A: 4.69 µM

Q: What about the IC50 (HCT-116) of the same compound?
A: 31.6 µM

Q: How did the IC50 (L02) turn out when `C[C@@H]1CC[C@@H]2[C@]34OO[C@](C)(CC[C@@H]13)O[C@H]4O[C@]2(C)C(=O)OCCCCCCCCCOC(=O)[C@@]1(C)O[C@@H]2O[C@@]3(C)CC[C@H]4[C@H](C)CC[C@@H]1[C@@]24OO3` was run?
A: 33.7 µM

Q: And the IC50 (A-375)?
A: 8.13 µM

Q: And the IC50 (PC-12)?
A: 4.46 µM

Q: And the IC50 (SH-SY5Y)?
A: 5.12 µM

Q: What about the IC50 (A549) of the same compound?
A: 12.2 µM

Q: And the IC50 (HCT-116)?
A: 7.41 µM
